Measured values taken from patent publication EP0061711A1, “10B-Carboxyamino boranes, process for their preparation and their use as medicaments in the neutron-capture therapy” (priority 1981, dated 1982).

Experiments:
[1] = test system: Sarkom 180; assay: sarcoma 180 in NMRI mice: tumour size and survival, alone or with gamma rays or thermal neutrons; format: in vivo, NMRI-Mäuse; details: for überlebende Tiere: 40 Tage after start of treatment
Description: Die geringe Toxizität der erfindungsgemäß verwendeten Substanz ermöglicht eine so hohe Dosierung, daß sowohl eine begrenzte Eigenwirkung zum Tragen kommt als auch insbesondere eine ausreichende Erhöhung der ^10Bor-Konzentration in den erkrankten Zellen erreicht wird. So wurde festgestellt, daß die Toxizität bei der Maus i.p. eine DL50 um 2000 m^g/k^g ergibt. Pharmakologisch wurde festgestellt, daß N-Trimethyl-^10B-carboxyaminoboran den Einbau von 125 Jod -^desoxyuridin bei der gesunden Maus senkt. Weiterhin senkt es den Einbau von ^125Jod -desoxyuridin in das Sarkom 180 der Maus.
Besonders eindrucksvoll ist die Veränderung der Überlebenszeiten der Sarkom 180 tragenden NMRI-Mäuse. Während 40 Tage nach Beginn der Behandlung von den unbehandelten und den nur mit Neutronen behandelten Tieren ca. 90% am Tumor gestorben sind, überleben zu diesem Zeitpunkt ca. 40% der nur mit N-Trimethyl-^10B-carboxy-aminoboran und ca. 75 % der mit dieser Substanz und Neutronen behandelten Tiere.
Ein Vergleich mit Natriumpentaborat und Neutronen zeigt, daß nur 20 bis 30 % der Sarkom-Tiere überleben.
(§1) Diese pharmakologischen Befunde wurden zunächst noch mit einem N-Trimethyl- B-carboxy-aminoboran erhalten, welches nur 20 % ^10Bor enthielt. Durch Steigerung des ^10Bor-Gehalts auf 80 bis 90% erhöht sich die Antitumorwirkung durch Neutroneneinfang um das. 4 bis 5-fache: • C-57 BL/6j Mäuse mit Adenocarcinom EO 771 werden in drei Gruppen aufgeteilt: • Gruppe 1 dient als Kontrolle Gruppe 2 wird 6 Minuten mit thermischen Neutronen bestrahlt Gruppe 3 erhält 10 mg N-Trimethyl-^10B-carboxyaminoboran intraperitonal (i.p.) und wird nach 6 Stunden - dem Zeitpunkt der optimalen Anreicherung im Tumorgewebe - für 6 Minuten mit thermischen Neutronen bestrahlt.

[2] = boron accumulation in tumour tissue versus blood; format: in vivo
[3] = test system: Adenocarcinom EO 771; assay: adenocarcinoma EO 771 in C-57 BL/6j mice, neutron capture therapy; format: in vivo, C-57 BL/6j Mäuse; details: 10 mg i.p., after 6 Stunden 6 Minuten thermische Neutronen
Description: as §1

[4] = water solubility; format: physicochemical; details: for intravenous application
[5] = test system: Sarkom 180 der Maus; assay: incorporation of 125I-deoxyuridine into sarcoma 180 of the mouse; format: in vivo; details: in Sarkom 180 der Maus
[6] = test system: gesunden Maus; assay: incorporation of 125I-deoxyuridine in the healthy mouse; format: in vivo; details: gesunde Maus
[7] = acute toxicity (DL50) in the mouse, i.p.; details: in vivo, ip, Maus
[8] = therapeutic results in combination with neutrons (model not stated); details: in Verbindung mit Neutronen, compared with N-Trimethyl-10B-carboxyaminoboran
[9] = toxicity compared with the compound of the invention (species not stated)

Compound: C[N+](C)(C)[BH2-]C(=O)O [N-Trimethyl- B-carboxy-aminoboran, reference compound]
- lokale oder systemische Schäden ([1]; surviving animals): An keinem der überlebenden Tiere wurden lokale oder systemische Schäden beobachtet

Compound: C[N+](C)(C)[10BH2-]C(=O)O [N-Trimethyl-^10B-carboxyaminoboran]
- Kp ([2]; tumour to blood, 6 bis 12 Stunden after intravenous injection, read-out: Bor-Konzentration im Tumor relative to Blut): 2 to 3
- Tmax ([2]; tumour, ip, after i.p. application, read-out: Zeitpunkt der optimalen Anreicherung im Tumorgewebe): 6 h
- Tumorgröße [3]: nimmt der Tumor in Gruppe 3 nach der kombinierten Behandlung an Größe ab
- time until tumour is reduced to a minimum [3]: ~7 Tagen
- Wasserlöslichkeit [4]: ausreichend wasserlöslich
- Einbau von 125Jod -desoxyuridin [5]: senkt
- Einbau von 125Jod -desoxyuridin [6]: senkt
- LD50 [7]: ~2000 mg/kg
- überlebende Tiere ([1]; substance alone): ca. 40%
- überlebende Tiere ([1]; substance and Neutronen): ca. 75%
- Tumorgröße ([1]; Sarkom 180 der Maus, substance alone): Verkleinerung des Tumors
- Tumorwachstum ([1]; combination with γ-Strahlen): positiv beeinflußt
- Tumorvolumen ([1]; simultaneous treatment with thermischen Neutronen): wesentlich stärker verkleinert als durch die Einzelkomponenten

Compound: [NH3+][10BH2-]C(=O)O [Ammoniak- ^10B-carboxyboran, Ammoniak- ^10 B-carboxyboran]
- therapeutische Ergebnisse [8]: Noch bessere therapeutische Ergebnisse
- LD50 [7]: ~2500 mg/kg

Compound: Natriummonomercaptoundecahydrodecaborat
- toxicity relative to the compound of the invention [9]: ~5 mal
